The experiment addresses T1, recombinant sEH (Homo sapiens, UniProt P34913).
T1 construct: made in house; host or cells: Sf9 insect cells
T1 sequence (P34913 1-555): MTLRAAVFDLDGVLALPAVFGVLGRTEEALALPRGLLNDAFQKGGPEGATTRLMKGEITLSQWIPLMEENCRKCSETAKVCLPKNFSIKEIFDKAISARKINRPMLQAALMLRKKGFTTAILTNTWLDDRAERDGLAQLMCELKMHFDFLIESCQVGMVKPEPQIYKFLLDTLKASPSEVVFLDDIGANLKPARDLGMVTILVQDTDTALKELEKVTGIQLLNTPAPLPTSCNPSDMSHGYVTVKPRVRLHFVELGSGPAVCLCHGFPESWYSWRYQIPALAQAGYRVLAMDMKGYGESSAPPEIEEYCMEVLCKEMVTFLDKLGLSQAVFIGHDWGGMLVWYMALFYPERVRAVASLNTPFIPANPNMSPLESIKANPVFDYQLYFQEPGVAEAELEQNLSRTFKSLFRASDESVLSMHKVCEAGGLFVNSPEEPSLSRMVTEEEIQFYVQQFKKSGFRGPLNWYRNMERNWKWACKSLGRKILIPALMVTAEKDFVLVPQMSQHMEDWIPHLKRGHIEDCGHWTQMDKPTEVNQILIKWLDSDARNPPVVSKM
Kind of experiment: biochemical screening assay for inhibition of soluble epoxide hydrolase (fluorometric, Phome substrate). Put shortly:
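Reading fluorescence before substrate addition and after completion corrected for autofluorescence. Reaction: 5 μM Phome, 2 nM recombinant human sEH (Sf9-expressed), compound 0.0001–10 μM, 25 mM Hepes with 0.01% albumin, 15 min pre-incubation then 60 min at 30 °C; IC50 derived from % inhibition.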

SMILES strings stand for the structures. Structures can show the parent of a compound that is named as a salt.

For orientation: IC50 means the concentration that inhibits the measured activity by half. `Cc1cccc(CNC(=O)NC2COC3C(C#Cc4ccccc4)COC23)c1` [Example 291, 1-(3-Methyl-benzyl)-3-[(3S,3aR,6R)-6-((S)-phenylethynyl)-hexahydro-furo[3,2-b]furan-3-yl]-urea]: the concentration for half-maximal inhibition (IC50) stood at 37 nM. Regarding `O=C(Nc1ccc(F)cc1)NC1COC2C(C#Cc3ccccc3)COC12` [Example 292, 1-(4-Fluoro-phenyl)-3-[(3S,3aR,6R)-6-((S)-phenylethynyl)-hexahydro-furo[3,2-b]furan-3-yl]-urea], the IC50 came to 46 nM. The same measure for `O=C(Nc1ccc2c(c1)OCO2)N[C@H]1CO[C@H]2[C@@H]1OC[C@@H]2C#Cc1ccccc1` [Example 293, 1-Benzo[1,3]dioxol-5-yl-3-((3S,3aR,6S,6aR)-6-phenylethynyl-hexahydro-furo[3,2-b]furan-3-yl)-urea]: 71 nM. As to `O=C(Nc1cccc(F)c1)N[C@H]1CO[C@H]2[C@@H]1OC[C@@H]2C#Cc1ccccc1` [Example 294, 1-(3-Fluoro-phenyl)-3-((3S,3aR,6S,6aR)-6-phenylethynyl-hexahydro-furo[3,2-b]furan-3-yl)-urea], the half-maximal inhibitory concentration (IC50) came out at 123 nM.

For `O=C(Nc1ccc2c(c1)OCCO2)NC1COC2C(C#Cc3ccccc3)COC12` [Example 295, 1-(2,3-Dihydro-benzo[1,4]-dioxin-6-yl)-3-((3S,3aR,6S,-6aR)-6-phenylethynyl-hexa-hydro-furo[3,2-b]furan-3-yl)-urea], the IC50 was 112 nM. The same measure for `O=C(NCCc1cccs1)N[C@H]1CO[C@H]2[C@@H]1OC[C@@H]2C#Cc1ccccc1` [Example 296, 1-((3S,3aR,6S,6aR)-6-Phenylethynyl-hexahydro-furo[3,2-b]furan-3-yl)-3-(2-thiophen-2-yl-ethyl)-urea]: 100 nM. The same measure for `O=C(NCCc1ccccc1)N[C@H]1CO[C@H]2[C@@H]1OC[C@@H]2C#Cc1ccccc1` [Example 297, 1-Phenethyl-3-((3S,3aR,6S,6aR)-6-phenylethynyl-hexahydro-furo[3,2-b]furan-3-yl)-urea]: 67 nM; for `O=C(Nc1ccc(OC(F)(F)F)cc1)N[C@H]1CO[C@H]2[C@@H]1OC[C@@H]2C#Cc1ccccc1` [Example 298, 1-((3S,3aR,6S,6aR)-6-Phenylethynyl-hexahydro-furo[3,2-b]furan-3-yl)-3-(4-trifluoromethoxy-phenyl)-urea]: 25 nM. The same measure for `O=C(Nc1cccc(C(F)(F)F)c1)N[C@H]1CO[C@H]2[C@@H]1OC[C@@H]2C#Cc1ccccc1` [Example 299, 1-((3S,3aR,6S,6aR)-6-Phenylethynyl-hexahydro-furo[3,2-b]furan-3-yl)-3-(3-trifluoromethyl-phenyl)-urea]: 1250 nM; for `O=C(NC1CCCCC1)N[C@H]1CO[C@H]2[C@@H]1OC[C@@H]2C#Cc1ccccn1` [Example 300, 1-Cyclohexyl-3-((3S,3aR,6S,-6aR)-6-pyridin-2-ylethynyl-hexahydro-furo[3,2-b]furan-3-yl)-urea; trifluoroacetate]: 19 nM; for `COc1cc(NC(=O)N[C@H]2CO[C@H]3[C@@H]2OC[C@@H]3C#Cc2ccsc2)cc(OC)c1` [Example 301, 1-(3,5-Dimethoxy-phenyl)-3-((3S,3aR,6S,6aR)-6-thiophen-3-ylethynyl-hexahydro-furo[3,2-b]furan-3-yl)-urea]: 104 nM. For `Cc1cc(C)cc(NC(=O)N[C@H]2CO[C@H]3[C@@H]2OC[C@@H]3C#Cc2ccsc2)c1` [Example 302, 1-(3,5-Dimethyl-phenyl)-3-((3S,3aR,6S,6aR)-6-thiophen-3-ylethynyl-hexahydro-furo[3,2-b]furan-3-yl)-urea], the IC50 amounted to 72 nM. Turning to `O=C(Nc1ccccc1)NC1COC2C(C#Cc3ccsc3)COC12` [Example 303, 1-Phenyl-3-((3S,3aR,6S,-6aR)-6-thiophen-3-ylethynyl-hexahydro-furo[3,2-b]furan-3-yl)-urea], the half-inhibitory concentration (IC50) was 241 nM. The same measure for `O=C(NCc1ccc(F)cc1)N[C@H]1CO[C@H]2[C@@H]1OC[C@@H]2C#Cc1ccsc1` [Example 304, 1-(4-Fluoro-benzyl)-3-((3S,3aR,6S,6aR)-6-thiophen-3-ylethynyl-hexahydro-furo[3,2-b]furan-3-yl)-urea]: 279 nM.

The values are drawn from US9540391B2, “Isomannide derivatives as inhibitors of soluble epoxide hydrolase” (SANOFI, priority 2013, dated 2017).
